Laboratory results reported in US20210054393A1, “GENES FOR HORMONE-FREE PLANT REGENERATION” (priority 2018, published 2021).

Tested on: Arabidopsis seedlings
Assay: Hormone-independent shoot regeneration of Arabidopsis seedlings after chemical induction of the transformed constructs
Type: in vivo, Arabidopsis thaliana
Description: For plant transformation, vector SHOOT REGENERATION was introduced into A. tumefaciens (strain C58C1.pMP90) by electroporation. Transformant A. tumefaciens were used to transform A. thaliana plants of the Col-0 ecotype by the floral dip method (Clough, 1998).
Seeds were surface sterilised by chlorin gas by the vapor sterilisation method (Lindsey, 2017). After sterilisation, the seeds were suspended in a 0.1% agarose solution, before being stratified at 4° C. in darkness for 48 hours. Subsequently, the seeds were plated on germination medium under sterile conditions. The seeds were plated on a fine nylon mesh (100 μm), which allowed for the contact with the medium without allowing seedlings to penetrate the mesh. The plates with the seedlings were sealed with surgical tape (3M, Micropore) to prevent desiccation. The plates were placed in upright position in a growth chamber (22° C., 120-150 μmol/m^2s with 16 h light/8 h dark photoperiodlight). The plates were left to grow in these circumstances for 5 days.
After 5 days of growth, the seedlings were transplanted under sterile conditions by transporting the mesh on which they were growing from the germination medium to the induction medium. The plates with the seedlings were sealed with surgical tape (3M, Micropore) to prevent desiccation. The plates were placed back in the growth chamber in upright position. The plates were left to grow in this condition for 14 days. Shoots started appearing in the second week of induction.
Plants transformed with the SHOOT REGENERATION vector (XVE-transactivated AmiRBR and AtWIND1; GVG-transactivated AtSHR, AtSCR, AtPLT1, AtPLT4, AtPLT5 and AtWOX5) were grown on medium containing 10 μM 17β-estradiol (EST: activation of XVE) and/or 10 μM dexamethasone (DEX: activation of GVG).
Plants transformed with the SHOOT REGENERATION-2 vector (XVE-transactivated AtWIND1; GVG-transactivated AtPLT1 and AtWOX5) were grown on medium containing 10 μM 17β-estradiol (EST: activation of XVE) and/or 10 μM dexamethasone (DEX: activation of GVG).

[1] = inducer on wild-type (non-transformed) seedlings, percentage of total number of seedlings tested

SMILES	green callus (inducer on wild-type (non-transformed) seedlings, percentage of the numbers with callus formation)	shoot regeneration (inducer on wild-type (non-transformed) seedlings, percentage of the numbers with green callus formation)	callus [1]	green callus [1]	root growth arrest [1]	shoot regeneration [1]	root growth arrest, callus formation or shoot regeneration (roots of non-transformed Arabidopsis, induced with 10 μM, result in words)
C[C@@H]1C[C@H]2[C@@H]3CCC4=CC(=O)C=C[C@]4(C)[C@@]3(F)[C@@H](O)C[C@]2(C)[C@@]1(O)C(=O)CO [DEX, dexamethasone]	0%	0%	0%	0%	0%	0%	–
C[C@]12CC[C@@H]3c4ccc(O)cc4CC[C@H]3[C@@H]1CC[C@@H]2O [estradiol, 17β-estradiol]	–	–	–	–	–	–	never showed any root growth arrest, callus formation or shoot regeneration
